Test results: patent publication US8623913B2, “Methods for treating restless legs syndrome” (priority 2010, dated 2014)
“Also recorded” adds a separate entry of the source.

How the values were obtained:
[1] = molecular target: T1, hNET (human norepinephrine transporter) (Homo sapiens, UniProt P23975); experiment: biochemical; type: binding; settings: HEK-hNET cells, mean ± SEM
T1 construct: expressed in transfected cells; host or cells: HEK293 cells (ATCC), clonal, kept under geneticin selection

[2] = tested on: rats with sciatic nerve ligation; experiment: Thermal hyperalgesia (hindpaw withdrawal latency, plantar tester) in rats with sciatic nerve ligation; type: in vivo, Sprague-Dawley rats; settings: 30 mg/kg IP; for Mean paw withdrawal latency: n = 6, mean ± SEM
Procedure: Young adult male Sprague-Dawley rats (CD(SD)IGS, 150-200 g) were initially anesthetized with isoflurane in O2 by a mask and the surgical procedure was performed according to the method described by Bennett and Xie (1988). Briefly, the right sciatic nerves were loosely tied using ligatures. All experiments were conducted in accordance with the guidelines of the International Association for the Study of Pain. The behavioral tests were conducted at least 14 days postoperatively.
The test compound was dissolved in saline and administered intraperitoneally at 30 mg/kg to animals in a volume of 3 mL/kg body weight.
To test for thermal hyperalgesia, the thermal response was determined by the hindpaw withdrawal latency, using a plantar tester (UGO BASILE, Italy), and a modified method of Hargreaves et al. (1988). Rats were allowed to acclimate within plastic enclosures on a clear glass plate maintained at room temperature. A radiant heat source (intensity 90) was controlled with a timer and focused onto the plantar surface of the rat right hind paw encompassing the glabrous skin. Paw withdrawal stopped both heat source and timer. A maximal cut-off 30 sec was used to prevent tissue damage. Rats were assessed for thermal hyperalgesia predose (0 hr) and at 1, 4 and 8 hours after 30 mg/kg test compound administration.
Data are expressed as mean±standard error of mean (SEM). The values of behavioral signs of neuropathic pain at various postoperative time points were compared with those of the preoperative control period by a repeated-measure One-way Analysis of Variance (followed by Dunnett's post-hoc test). P-values less than 0.05 were considered to be significant.

[3] = tested on: homozygous mutant dopamine transporter knockout (KO) mice; experiment: Spontaneous activity in the open field, dopamine transporter KO mice; type: in vivo
Procedure: Male and female wild-type and homozygous mutant dopamine transporter KO mice (n˜10 mice/genotype/agent; produced by in vivo homologous recombination and bred at Duke University Medical Center, Durham, N.C.) were tested for spontaneous activity in the open field following a single injection of the vehicle or compound. […] All drugs were given in a volume of 5 mL/kg. Animals were returned to the open field for an additional 90 min. Spontaneous activity was evaluated in an automated Omnitech Digiscan apparatus (Accuscan Instruments, Columbus, Ohio). Activity was summated at 5 min intervals over the 2 h period of testing. Horizontal activity or locomotion was measured in terms of the total distance covered in cm, vertical activity or rearing was expressed in terms of the total numbers of vertical beam breaks, and stereotypy was quantified in terms of repetitive breaks of a given beam or beams with intervals of less than 1 sec. For the analyses, 10 WT and 10 KO mice were run in each of the treatment groups with approximately equal numbers of males and females assigned to each group. Data were analyzed by the Statistical Package for Social Sciences programs (version 11.0 for Windows; SPSS Science, Chicago, Ill.). The results for each dependent variable were analyzed by repeated analyses of variance (RMANOVA) for within subjects effects (group differences over time) and between-subjects effects (tests of main effects and interactions). Bonferroni corrected pair-wise comparisons were used as the post-hoc tests. A p<0.05 was considered significant.

[4] = molecular target: T2, hDAT (human dopamine transporter) (Homo sapiens, UniProt Q01959); experiment: Inhibition of [125I]RTI-55 radioligand binding to hDAT in HEK293 cell membranes
T2 construct: expressed in transfected cells; host or cells: HEK293 cells (ATCC), clonal, kept under puromycin selection

[5] = molecular target: T2, hDAT (human dopamine transporter); experiment: Filtration assay for inhibition of [3H]dopamine uptake in HEK-hDAT cells; type: cell-based
[6] = tested on: littermate wild-type mice; experiment: Sleep parameters (EEG/EMG) in littermate wild-type mice; type: in vivo; settings: for Duration of continuous wakefulness: resting period (ZT 2)
Excerpt: (§1) The polygraph signal (EEG (electroencephalography) and EMG (electromyography)) was captured with SleepSign (Kissei Comtech), and the sleep stage was visually scored with 10 sec epoch for wakefulness, non-REM sleep and REM sleep. Scoring criteria are: Wakefulness is characterized by desynchronized low-amplitude, mixed frequency (>4 Hz) EEG and high EMG activity. Rhythmic alpha (8-9 Hz) wave (with high EMG activities) may also appear. Non-REM is characterized by synchronized, high-amplitude, low-frequency (0.25-4 Hz) with reduced EMG activity (compared to wakefulness). EEG activity in REM sleep is similar to that in wakefulness, with desynchronized, mixed frequency low amplitude waves. Rhythmic alpha (8-9 Hz) wave with reduced EMG activities may also appear. […] activity during REM sleep is reduced even further and in many cases, completely absent. Some muscle twitching may be apparent in the EMG trace during REM sleep.
(§2) Three drug doses of the test compound (50, 100 and 150 mg/kg PO) plus vehicle, was orally administered at ZT 2 (Zeitgeber time: 2 hours after light on) or ZT14 (Zeitgeber time: 2 hours after light off) and the effects on sleep was monitored for 6 hours after the drug administration (the sleep data was collected for 30 hours after the drug injection, and are available for further analysis). The doses for modafinil were 50 and 200 mg/kg PO (plus vehicle), and modafinil was also administered at ZT 2 and ZT 14.
(§3) If the polygraph signals of some mice were not sufficient to score the sleep stage with accuracy (especially bad EMG), data from these animals were excluded, and the minimum of 5 animals (except for the highest dose of the test compound in wild-type mice in dark period, n=4) were included for the data analysis and number of animals were indicated in the figures.
(§4) Effects of test compound and modafinil on the amount of wake, non-REM sleep, REM sleep (cumulative seconds), number of episodes for each sleep stage during 6 hours, mean wake/sleep-bout lengths (seconds) were analyzed in each animal and the mean of each parameter was calculated in each genotype. The effects of compounds on wake and sleep amounts are useful to evaluate the wake promoting potency, and the number of episodes for each sleep stage and the mean wake/sleep bout length are parameters for evaluating the sleep fragmentation. Amphetamine and modafinil, two main wake-promoting compounds currently used for the treatment of EDS associated with various etiologies (narcolepsy, idiopathic hypersomnia and secondary EDS), are known to increase wake time and prolong wake bout length in normal and EDS conditions.
(§5) A comparison of the effects between hypocretin deficient and wild-type mice is very useful in determining if the wake-promotion of the test compound is dependent on the availability of hypocretins, and if there is a possible change in the sensitivity of the receptive mechanisms of test compound in narcoleptic mice due to the hypocretin ligand deficiency.

[7] = molecular target: T3, hSERT (human serotonin transporter) (Homo sapiens, UniProt P31645); experiment: Inhibition of [125I]RTI-55 radioligand binding to hSERT in HEK293 cell membranes
T3 construct: expressed in transfected cells; host or cells: HEK293 cells (ATCC), clonal, kept under puromycin selection

[8] = tested on: hypocretin cell ablated narcoleptic mice (prepororexin/ataxin-3 transgenic); experiment: Sleep parameters (EEG/EMG) in narcoleptic mice; type: in vivo; settings: for Duration of continuous wakefulness: resting period (ZT 2)
Excerpt: as §1, §2, §3, §4, §5

[9] = molecular target: T1, hNET (human norepinephrine transporter); experiment: cell-based; settings: HEK-hNET cells; mean ± SEM; read-out: [3H]NE Uptake IC50
[10] = tested on: wild-type mice; experiment: Spontaneous activity in the open field, wild-type mice; type: in vivo; settings: WT mice; 2 mg/kg SC
Procedure: Male and female wild-type and homozygous mutant dopamine transporter KO mice (n˜10 mice/genotype/agent; produced by in vivo homologous recombination and bred at Duke University Medical Center, Durham, N.C.) were tested for spontaneous activity in the open field following a single injection of the vehicle or compound. Mice were placed into the open field for 30 min and administered SC the vehicle (sterile water), 2 mg/kg amphetamine, or three concentrations of the test compound (10, 30, 100 mg/kg). All drugs were given in a volume of 5 mL/kg. Animals were returned to the open field for an additional 90 min. Spontaneous activity was evaluated in an automated Omnitech Digiscan apparatus (Accuscan Instruments, Columbus, Ohio). […] Horizontal activity or locomotion was measured in terms of the total distance covered in cm, vertical activity or rearing was expressed in terms of the total numbers of vertical beam breaks, and stereotypy was quantified in terms of repetitive breaks of a given beam or beams with intervals of less than 1 sec. […] Data were analyzed by the Statistical Package for Social Sciences programs (version 11.0 for Windows; SPSS Science, Chicago, Ill.). The results for each dependent variable were analyzed by repeated analyses of variance (RMANOVA) for within subjects effects (group differences over time) and between-subjects effects (tests of main effects and interactions). […]

[11] = resting period, PO, genotypes not separated

T2 sequence (Q01959 whole entry): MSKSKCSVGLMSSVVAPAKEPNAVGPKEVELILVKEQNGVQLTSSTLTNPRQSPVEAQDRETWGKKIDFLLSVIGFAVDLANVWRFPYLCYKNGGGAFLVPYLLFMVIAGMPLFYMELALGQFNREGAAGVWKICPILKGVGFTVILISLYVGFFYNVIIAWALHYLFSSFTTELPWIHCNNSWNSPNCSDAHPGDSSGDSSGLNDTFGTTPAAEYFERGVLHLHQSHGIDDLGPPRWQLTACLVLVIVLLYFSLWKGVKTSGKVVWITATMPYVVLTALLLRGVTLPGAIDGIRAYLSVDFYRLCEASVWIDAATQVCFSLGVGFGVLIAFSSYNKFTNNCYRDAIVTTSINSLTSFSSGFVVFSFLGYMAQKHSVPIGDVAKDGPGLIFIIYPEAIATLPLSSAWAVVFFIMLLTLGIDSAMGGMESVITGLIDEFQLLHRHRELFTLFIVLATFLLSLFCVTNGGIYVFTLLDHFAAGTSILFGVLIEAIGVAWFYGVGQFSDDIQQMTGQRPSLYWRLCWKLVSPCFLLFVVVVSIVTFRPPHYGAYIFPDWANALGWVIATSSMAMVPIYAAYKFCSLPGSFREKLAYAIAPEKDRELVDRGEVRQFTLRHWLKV
T1 sequence (P23975 whole entry): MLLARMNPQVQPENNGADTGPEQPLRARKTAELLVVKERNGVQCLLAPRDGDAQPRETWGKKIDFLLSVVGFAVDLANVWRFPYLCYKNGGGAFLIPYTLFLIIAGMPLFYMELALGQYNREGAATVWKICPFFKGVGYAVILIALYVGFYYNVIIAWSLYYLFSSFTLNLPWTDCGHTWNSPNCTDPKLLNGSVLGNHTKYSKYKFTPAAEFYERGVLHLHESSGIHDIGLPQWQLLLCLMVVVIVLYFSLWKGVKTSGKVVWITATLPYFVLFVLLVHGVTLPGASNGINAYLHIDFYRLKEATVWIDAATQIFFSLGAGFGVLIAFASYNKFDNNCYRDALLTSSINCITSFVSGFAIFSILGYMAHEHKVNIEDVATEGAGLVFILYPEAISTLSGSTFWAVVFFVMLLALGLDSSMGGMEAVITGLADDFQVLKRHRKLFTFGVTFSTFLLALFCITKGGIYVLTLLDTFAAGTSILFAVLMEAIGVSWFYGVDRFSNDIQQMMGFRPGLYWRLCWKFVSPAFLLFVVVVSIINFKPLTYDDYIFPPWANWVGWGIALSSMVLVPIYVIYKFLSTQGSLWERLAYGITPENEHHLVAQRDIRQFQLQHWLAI
T3 sequence (P31645 whole entry): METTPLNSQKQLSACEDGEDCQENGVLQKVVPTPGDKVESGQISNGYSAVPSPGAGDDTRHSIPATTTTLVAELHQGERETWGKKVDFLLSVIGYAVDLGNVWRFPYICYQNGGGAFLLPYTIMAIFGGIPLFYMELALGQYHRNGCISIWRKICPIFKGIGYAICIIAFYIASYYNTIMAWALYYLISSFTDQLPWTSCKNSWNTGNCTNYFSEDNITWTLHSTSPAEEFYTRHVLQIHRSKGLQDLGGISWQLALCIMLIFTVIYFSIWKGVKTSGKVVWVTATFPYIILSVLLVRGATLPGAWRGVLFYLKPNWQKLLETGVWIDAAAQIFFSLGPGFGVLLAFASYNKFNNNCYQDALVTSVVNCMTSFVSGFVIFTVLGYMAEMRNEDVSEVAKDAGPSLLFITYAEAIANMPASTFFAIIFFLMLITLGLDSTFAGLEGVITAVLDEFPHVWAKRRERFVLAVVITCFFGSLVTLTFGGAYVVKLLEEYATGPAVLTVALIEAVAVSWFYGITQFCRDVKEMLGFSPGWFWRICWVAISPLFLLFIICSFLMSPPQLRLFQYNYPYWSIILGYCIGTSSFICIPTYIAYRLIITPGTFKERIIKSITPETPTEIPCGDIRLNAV

`NC(=O)OC[C@H](N)Cc1ccccc1` [Test Compound, O-carbamoyl-(D)-phenylalaninol] was tested, and the Hill coefficient [1] was −1.45 ± 0.34, the Ki ([1]; read-out: [125I]RTI-55 Binding Ki) was 3.7 µM and the “Mean paw withdrawal latency” value ([2]; 0 hr (predose)) was 5.17 ± 0.27 s. For the same molecule, the “Mean paw withdrawal latency” value ([2]; 1 hr post-injection) was 6.33 ± 0.14 s, the “Mean paw withdrawal latency” value ([2]; 4 hr post-injection) was 6.06 ± 0.21 s and the “Mean paw withdrawal latency” value ([2]; 8 hr post-injection) was 5.63 ± 0.16 s. The “% of Antagonism (latency at time point / latency at 0 hr − 1) × 100” value ([2]; 1 hr post-injection) was “(22.3%^@)”, the “% of Antagonism (latency at time point / latency at 0 hr − 1) × 100” value ([2]; 4 hr post-injection) was “(17.2%)” and the “% of Antagonism (latency at time point / latency at 0 hr − 1) × 100” value ([2]; 8 hr post-injection) was “(8.8%)”. The “Paw withdrawal latency to a thermal stimulus (in words)” value ([2]; vs pre-injection (0 hr)) was “significantly increased the paw withdrawal latency”, the “Spontaneous activity compared with amphetamine” value ([3]; 100 mg/kg SC vs 2 mg/kg amphetamine) was “suppressed activities more efficiently than amphetamine” and the “Spontaneous activity (locomotor, rearing, stereotypical activities)” value ([3]; 10, 30, 100 mg/kg SC, 90 min post-injection) was “selectively reduced activity of the KO mice in a dose-dependent manner; also recorded: reduced activities in a dose-dependent fashion”. It also gave a Ki [4] of 14.2 µM, a Hill coefficient ([4]; HEK-hDAT cells, mean ± SEM) of −0.77 ± 0.12 and an IC50 [5] of 2.9 µM. For the same molecule, the “Duration of continuous wakefulness” value ([6]; 50 mg/kg PO) was “up to 3 hours”, the “Duration of continuous wakefulness” value ([6]; 100 mg/kg PO) was ≤ 4 h and the “Duration of continuous wakefulness” value ([6]; 150 mg/kg PO) was ≤ 5 h. For the same molecule, the “Non-REM and REM sleep during the period of continuous wakefulness” value ([6]; 50-150 mg/kg PO, resting period) was “completely suppressed”, the Wake-promoting effects ([6]; active (dark) period (ZT 14), 50-150 mg/kg PO) was “only small effects were observed” and the Ki [7] was 81.5 µM. For the same molecule, the Hill coefficient ([7]; HEK-hSERT cells, mean ± SEM) was −2.28 ± 0.05, the “Duration of continuous wakefulness” value ([8]; narcoleptic mice, 50 mg/kg PO) was “up to 3 hours” and the “Duration of continuous wakefulness” value ([8]; narcoleptic mice, 100 mg/kg PO) was ≤ 4 h. The “Duration of continuous wakefulness” value ([8]; narcoleptic mice, 150 mg/kg PO) was ≤ 5 h, the “Non-REM and REM sleep during the period of continuous wakefulness” value ([8]; narcoleptic mice, 50-150 mg/kg PO, resting period) was “completely suppressed” and the Wake-promoting effects ([8]; narcoleptic mice, active (dark) period (ZT 14), 50-150 mg/kg PO) was “much pronounced wake-promoting effects”. The Wake amounts ([8]; narcoleptic mice, active period, 100 and 150 mg/kg PO) was “brought up to the levels of wild-type mice”, the “Amounts of non-REM and REM sleep” value ([8]; narcoleptic mice, active period, PO) was “brought down to the levels of wild-type mice” and the “EEG patterns after administration” value ([8]; resting period, 50-150 mg/kg PO, genotypes not separated) was “no abnormal EEG patterns”. For the same molecule, the “Effect on REM sleep” value [8, 11] was “potently reduced REM sleep” and the IC50 [9] was 4.4 µM.

In the case of `CC(N)Cc1ccccc1` (stereo not drawn) [Amphetamine, reference compound], the “Locomotor, rearing and stereotypical activities relative to vehicle controls” value ([3]; 2 mg/kg SC) is reported as “decreased” and the “Locomotor, rearing and stereotypical activities relative to vehicle controls” value [10] is reported as “increased”.

With `NC(=O)C[S+]([O-])C(c1ccccc1)c1ccccc1` (stereo not drawn) [modafinil, reference compound] the “Wake amount versus wild-type baseline” value ([8]; narcoleptic mice, active period, 200 mg/kg PO) was “did not bring the wake amount to that of the wild-type baseline levels”, the Wakefulness ([8]; narcoleptic mice, active period, 50 and 200 mg/kg PO) was “dose-dependently increase wakefulness” and the “Wake promoting effect compared with test compound” value ([8]; resting period, 200 mg/kg PO, genotypes not separated) was “roughly corresponds to 50 mg/kg of test compound”. For the same molecule, the Wake promoting effects ([8]; resting period, 50 and 200 mg/kg PO, genotypes not separated) was “modest” and the “Effect on REM sleep” value [8, 11] was “did not strongly reduce REM sleep”.
